How the values were obtained:
EP4 = EP4 (Homo sapiens (Human), UniProt P35408); experiment: hEP4 cAMP assay (BT549 breast cancer cells, HTRF cAMP); assay type: cell-based; conditions: antagonistic activity, PGE2 6 nM
Summary of the method: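 cAMP accumulation quantified by HTRF competition between cellular cAMP and d2-labeled cAMP for cryptate anti-cAMP antibody. Cells: endogenously EP4-expressing BT549, buffer with 2 mM IBMX; 45 min RT compound preincubation preceded 30 min RT challenge with PGE2 at 6 nM final.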

PTGER2 (EP2) = PTGER2 (EP2) (Homo sapiens (Human), UniProt P43116); experiment: hEP2 b-arrestin assay (PathHunter HEK 293 PTGER2 b-arrestin cells); assay type: cell-based; conditions: antagonistic activity, beta-arrestin assay; read-out: hEP2 b-arr IC50
PTGER2 (EP2), sequence (P43116 whole entry): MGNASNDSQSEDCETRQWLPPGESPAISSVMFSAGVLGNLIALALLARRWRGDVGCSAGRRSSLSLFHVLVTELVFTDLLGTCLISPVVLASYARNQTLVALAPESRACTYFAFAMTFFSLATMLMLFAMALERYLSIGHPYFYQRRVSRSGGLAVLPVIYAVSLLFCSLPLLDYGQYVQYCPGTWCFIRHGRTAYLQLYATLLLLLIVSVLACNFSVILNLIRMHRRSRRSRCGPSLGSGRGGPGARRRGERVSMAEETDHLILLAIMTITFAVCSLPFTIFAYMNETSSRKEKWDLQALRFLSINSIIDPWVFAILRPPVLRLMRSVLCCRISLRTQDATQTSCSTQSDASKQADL
Description: Plate is pre-incubated 15 minutes at 37° C. Then five microliters of PGE2 (final conc. 5 μM) are transferred into the assay plate. Plate is incubated 120 minutes at 37° C.
(each concentration is measured in duplicate)

EP2 = EP2 (Homo sapiens (Human), UniProt P43116); experiment: hEP2 cAMP assay (SF295 glioblastoma cells, HTRF cAMP); assay type: cell-based; conditions: antagonistic activity
EP2, sequence (P43116 whole entry): as above
Summary of the method: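 PGE2-driven cAMP accumulation was measured by HTRF in SF295 cells, which express endogenous EP2 only. Cells in assay buffer with 2 mM IBMX were pre-incubated 45 min at RT, then incubated 30 min at RT. Detection used competition between cellular cAMP and d2-cAMP for a cryptate anti-cAMP antibody.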

PTGER4 (EP4) = PTGER4 (EP4) (Homo sapiens (Human), UniProt P35408); experiment: cell-based
PTGER4 (EP4), sequence (P35408 whole entry): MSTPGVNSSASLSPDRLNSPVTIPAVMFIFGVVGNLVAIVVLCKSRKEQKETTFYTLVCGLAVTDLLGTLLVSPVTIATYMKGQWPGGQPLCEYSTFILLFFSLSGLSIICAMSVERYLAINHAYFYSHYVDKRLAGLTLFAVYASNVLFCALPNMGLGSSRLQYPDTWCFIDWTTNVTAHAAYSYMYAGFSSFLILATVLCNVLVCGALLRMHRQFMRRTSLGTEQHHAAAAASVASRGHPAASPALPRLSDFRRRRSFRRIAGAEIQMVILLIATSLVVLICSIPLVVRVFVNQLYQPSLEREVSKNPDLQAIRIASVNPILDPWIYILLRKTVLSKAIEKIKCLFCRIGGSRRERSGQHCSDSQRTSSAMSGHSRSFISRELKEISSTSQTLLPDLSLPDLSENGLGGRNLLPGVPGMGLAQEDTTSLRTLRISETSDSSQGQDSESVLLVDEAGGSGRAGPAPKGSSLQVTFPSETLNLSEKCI

EP4, sequence (P35408 whole entry): as above

## CCCc1cc(-c2cc(NCCc3ccc4ccccc4c3C)ncn2)ccc1C(=O)O [Ex 28, 4-{6-[2-(1-Methyl-naphthalen-2-yl)-ethylamino]-pyrimidin-4-yl}-2-propyl-benzoic acid]
EP4
  IC50: 61 nM
PTGER2 (EP2)
  IC50: 135 nM
EP2
  IC50: 74 nM
PTGER4 (EP4)
  IC50: 96 nM

## CCOc1cc(-c2cc(NCCc3c(F)c(F)c4cc(C)oc4c3OC)ncn2)ccc1C(=O)O [Ex 215]
EP4
  IC50: 259 nM
PTGER2 (EP2)
  IC50: 1590 nM
EP2
  IC50: 650 nM
PTGER4 (EP4)
  IC50: 379 nM

## COc1cc2sccc2cc1CCNc1cc(-c2ccc(C(=O)O)c(SC)c2)ncn1 [Ex 18, 4-{6-[2-(6-Methoxy-benzo[b]thiophen-5-yl)-ethylamino]-pyrimidin-4-yl}-2-methylsulfanyl-benzoic acid]
EP4
  IC50: 10 nM
PTGER2 (EP2)
  IC50: 6 nM
EP2
  IC50: 4 nM
PTGER4 (EP4)
  IC50: 70 nM

## CCOc1cc(-c2cc(NCCc3c(OCC)cc4ccccc4c3F)ncn2)ccc1C(=O)O [Example 436, 2-Ethoxy-4-{6-[2-(3-ethoxy-1-fluoro-naphthalen-2-yl)-ethylamino]-pyrimidin-4-yl}-benzoic acid]
EP4; BT549 cells
  IC50: 57 nM
PTGER2 (EP2)
  IC50: 16 nM
EP2
  IC50: 110 nM
PTGER4 (EP4)
  IC50: 31 nM

## CCOc1cc(-c2cc(NCCc3ccc4ccccc4c3C)ncn2)ccc1NCC(=O)O [Ex 205]
EP4
  IC50: 244 nM
PTGER2 (EP2)
  IC50: 118 nM
EP2
  IC50: 190 nM
PTGER4 (EP4)
  IC50: 47 nM

## CCOc1cc(-c2cc(NCCc3cc4ccoc4cc3F)ncn2)sc1C(=O)O [Ex 13, 3-Ethoxy-5-{6-[2-(6-fluoro-benzofuran-5-yl)-ethylamino]-pyrimidin-4-yl}-thiophene-2-carboxylic acid]
EP4
  IC50: 8 nM
PTGER2 (EP2)
  IC50: 12 nM
EP2
  IC50: 15 nM
PTGER4 (EP4)
  IC50: 9 nM

## CSc1cc(-c2cc(NCCc3ccc4cc[nH]c4c3)ncn2)ccc1C(=O)O [Ex 328, 4-{6-[2-(1H-Indol-6-yl)-ethylamino]-pyrimidin-4-yl}-2-methylsulfanyl-benzoic acid]
EP4
  IC50: 938 nM
PTGER2 (EP2)
  IC50: 287 nM
EP2
  IC50: 108 nM
PTGER4 (EP4)
  IC50: 919 nM

## CCOc1cc(-c2cc(NCCc3ccc4c(c3)OCO4)ncn2)sc1C(=O)O [Ex 111, 5-[6-(2-Benzo[1,3]dioxol-5-yl-ethylamino)-pyrimidin-4-yl]-3-ethoxy-thiophene-2-carboxylic acid]
EP4
  IC50: 81 nM
PTGER2 (EP2)
  IC50: 115 nM
EP2
  IC50: 49 nM
PTGER4 (EP4)
  IC50: 89 nM

## COc1cc2c(cc1CCNc1cc(-c3ccc4c(C(=O)O)coc4c3)ncn1)OCCO2 [Ex 199, 6-{6-[2-(7-Methoxy-2,3-dihydro-benzo[1,4]dioxin-6-yl)-ethylamino]-pyrimidin-4-yl}-benzofuran-3-carboxylic acid]
EP4
  IC50: 138 nM
PTGER2 (EP2)
  IC50: 177 nM
EP2
  IC50: 62 nM
PTGER4 (EP4)
  IC50: 2160 nM

## Cc1c(CCNc2cc(-c3cc4c(C(=O)O)cccc4[nH]3)ncn2)ccc2ccccc12 [Ex 127, 2-{6-[2-(1-Methyl-naphthalen-2-yl)-ethylamino]-pyrimidin-4-yl}-1H-indole-4-carboxylic acid]
EP4
  IC50: 103 nM
PTGER2 (EP2)
  IC50: 181 nM
EP2
  IC50: 101 nM
PTGER4 (EP4)
  IC50: 109 nM

## COc1cc2occc2c(C)c1CCNc1cc(-c2ccc(C(=O)O)c(OC3CCC3)c2)ncn1 [Ex 208, 2-Cyclobutoxy-4-{6-[2-(6-methoxy-4-methyl-benzofuran-5-yl)-ethylamino]-pyrimidin-4-yl}-benzoic acid]
EP4
  IC50: 248 nM
PTGER2 (EP2)
  IC50: 8 nM
EP2
  IC50: 5 nM
PTGER4 (EP4)
  IC50: 130 nM

## CCOc1cc(-c2cc(NCCc3ccc4ccccc4c3C)ncn2)sc1C(=O)NS(C)(=O)=O [Example 355, N-(3-Ethoxy-5-{6-[2-(1-methyl-naphthalen-2-yl)-ethylamino]-pyrimidin-4-yl}-thiophene-2-carbonyl)-methanesulfonamide]
EP4
  IC50: 95 nM
PTGER2 (EP2)
  IC50: 55 nM
EP2
  IC50: 46 nM
PTGER4 (EP4)
  IC50: 29 nM

## COc1cc2c(cc1CCNc1cc(-c3ccc4oc(C(=O)O)cc4c3)ncn1)OCCO2 [Ex 93, 5-{6-[2-(7-Methoxy-2,3-dihydro-benzo[1,4]dioxin-6-yl)-ethylamino]-pyrimidin-4-yl}-benzofuran-2-carboxylic acid]
EP4
  IC50: 118 nM
PTGER2 (EP2)
  IC50: 275 nM
EP2
  IC50: 85 nM
PTGER4 (EP4)
  IC50: 1260 nM

## CCOc1cc(-c2cc(NCCc3ccc4sccc4c3)ncn2)sc1C(=O)O [Ex 5, 5-[6-(2-Benzo[b]thiophen-5-yl-ethylamino)-pyrimidin-4-yl]-3-ethoxy-thiophene-2-carboxylic acid]
EP4
  IC50: 3 nM
PTGER2 (EP2)
  IC50: 39 nM
EP2
  IC50: 28 nM
PTGER4 (EP4)
  IC50: 5 nM

## CCOc1cc(-c2cc(NCCc3cc(Cl)c4sccc4c3)ncn2)ccc1C(=O)O [Example 358, 4-{6-[2-(7-Chloro-benzo[b]thiophen-5-yl)-ethylamino]-pyrimidin-4-yl}-2-ethoxy-benzoic acid]
EP4
  IC50: 90 nM
PTGER2 (EP2)
  IC50: 538 nM
EP2
  IC50: 219 nM
PTGER4 (EP4)
  IC50: 138 nM

## CCOc1cc(-c2cc(NCCc3cc4c(cc3OC(F)F)OCO4)ncn2)sc1C(=O)O [Ex 119, 5-{6-[2-(6-Difluoromethoxy-benzo[1,3]dioxol-5-yl)-ethylamino]-pyrimidin-4-yl}-3-ethoxy-thiophene-2-carboxylic acid]
EP4
  IC50: 90 nM
PTGER2 (EP2)
  IC50: 32 nM
EP2
  IC50: 41 nM
PTGER4 (EP4)
  IC50: 113 nM

## CCCCOc1cc(-c2cc(NCCc3ccc4ccccc4c3C)ncn2)ccc1C(=O)O [Ex 169, 2-Butoxy-4-{6-[2-(1-methyl-naphthalen-2-yl)-ethylamino]-pyrimidin-4-yl}-benzoic acid]
EP4
  IC50: 168 nM
PTGER2 (EP2)
  IC50: 141 nM
EP2
  IC50: 125 nM
PTGER4 (EP4)
  IC50: 269 nM

## CCOc1cc(-c2cc(NCCc3ccc4ccccc4c3C)ncn2)sc1C(=O)O [Example 7, 3-Ethoxy-5-{6-[2-(1-methyl-naphthalen-2-yl)-ethylamino]-pyrimidin-4-yl}-thiophene-2-carboxylic acid]
EP4
  IC50: 5 nM
PTGER2 (EP2)
  IC50: 21 nM
EP2
  IC50: 12 nM
PTGER4 (EP4)
  IC50: 14 nM

## CCSc1cc(-c2cc(NCCc3cc4c(cc3OC)OCCO4)ncn2)ccc1C(=O)O [Ex 110, 2-Ethylsulfanyl-4-{6-[2-(7-methoxy-2,3-dihydro-benzo[1,4]dioxin-6-yl)-ethylamino]-pyrimidin-4-yl}-benzoic acid]
EP4
  IC50: 81 nM
PTGER2 (EP2)
  IC50: 56 nM
EP2
  IC50: 61 nM
PTGER4 (EP4)
  IC50: 179 nM

## CCOc1cc(-c2cc(NCCc3cc4c(cc3F)OCCN4C)ncn2)sc1C(=O)O [Ex 104, 3-Ethoxy-5-{6-[2-(7-fluoro-4-methyl-3,4-dihydro-2H-benzo[1,4]oxazin-6-yl)-ethylamino]-pyrimidin-4-yl}-thiophene-2-carboxylic acid]
EP4
  IC50: 71 nM
PTGER2 (EP2)
  IC50: 12 nM
EP2
  IC50: 13 nM
PTGER4 (EP4)
  IC50: 91 nM

## O=C(O)c1ccc(-c2cc(NCCc3ccc4sccc4c3)ncn2)cc1OC1CCC1 [Ex 125, 4-[6-(2-Benzo[b]thiophen-5-yl-ethylamino)-pyrimidin-4-yl]-2-cyclobutoxy-benzoic acid]
EP4
  IC50: 99 nM
PTGER2 (EP2)
  IC50: 116 nM
EP2
  IC50: 129 nM
PTGER4 (EP4)
  IC50: 226 nM

## CCOc1cc(-c2cc(NCCc3cc4c(cc3C)OCCO4)ncn2)ccc1OCC(=O)O [Ex 184, (2-Ethoxy-4-{6-[2-(7-methyl-2,3-dihydro-benzo[1,4]dioxin-6-yl)-ethylamino]-pyrimidin-4-yl}-phenoxy)-acetic acid]
EP4
  IC50: 200 nM
PTGER2 (EP2)
  IC50: 171 nM
EP2
  IC50: 164 nM
PTGER4 (EP4)
  IC50: 378 nM

## CCOc1cc(-c2cc(NCCc3ccc4sccc4c3)ncn2)sc1-c1noc(=O)[nH]1 [Example 340, 3-{5-[6-(2-Benzo[b]thiophen-5-yl-ethylamino)-pyrimidin-4-yl]-3-ethoxy-thiophen-2-yl}-[1,2,4]oxadiazol-5(4H)-one]
EP4
  IC50: 11 nM
PTGER2 (EP2)
  IC50: 12 nM
EP2
  IC50: 104 nM
PTGER4 (EP4)
  IC50: 3 nM

## CCOc1cc2c(cc1CCNc1cc(-c3ccc(CC(=O)O)c(OCC)c3)ncn1)OCCO2 [Ex 192, (2-Ethoxy-4-{6-[2-(7-ethoxy-2,3-dihydro-benzo[1,4]dioxin-6-yl)-ethylamino]-pyrimidin-4-yl}-phenyl)-acetic acid]
EP4
  IC50: 210 nM
PTGER2 (EP2)
  IC50: 76 nM
EP2
  IC50: 69 nM
PTGER4 (EP4)
  IC50: 153 nM

## C#Cc1cc2ccccc2cc1CCNc1cc(-c2ccc(C(=O)O)c(OCC)c2)ncn1 [Ex 105, 2-Ethoxy-4-{6-[2-(3-ethynyl-naphthalen-2-yl)-ethylamino]-pyrimidin-4-yl}-benzoic acid]
EP4
  IC50: 73 nM
PTGER2 (EP2)
  IC50: 40 nM
EP2
  IC50: 76 nM
PTGER4 (EP4)
  IC50: 53 nM

## CCOc1cc(-c2cc(NCCc3cc(Cl)c4c(c3)OCCO4)ncn2)sc1C(=O)O [Ex 51, 5-{6-[2-(8-Chloro-2,3-dihydro-benzo[1,4]dioxin-6-yl)-ethylamino]-pyrimidin-4-yl}-3-ethoxy-thiophene-2-carboxylic acid]
EP4
  IC50: 25 nM
PTGER2 (EP2)
  IC50: 230 nM
EP2
  IC50: 207 nM
PTGER4 (EP4)
  IC50: 22 nM

## CCOc1cc2c(cc1CCNc1cc(-c3ccc(C(=O)O)c(SC)c3)ncn1)OCCO2 [Ex 137, 4-{6-[2-(7-Ethoxy-2,3-dihydro-benzo[1,4]dioxin-6-yl)-ethylamino]-pyrimidin-4-yl}-2-methylsulfanyl-benzoic acid]
EP4
  IC50: 120 nM
PTGER2 (EP2)
  IC50: 14 nM
EP2
  IC50: 4 nM
PTGER4 (EP4)
  IC50: 124 nM

From patent US11839613B2, “Pyrimidine derivatives as PGE2 receptor modulators” (IDORSIA PHARMACEUTICALS LTD, priority 2017, dated 2023)
